From ChEMBL document CHEMBL4706648, “Antitubercular 2-Pyrazolylpyrimidinones: Structure-Activity Relationship and Mode-of-Action Studies” (J Med Chem, 2021)
In brackets after ≈: the same amount, converted by molar mass. Activity calls are given as the source filed them. The rule behind the calls is not given here.

Experiments:
CHO = test: Cytotoxicity against CHO cells assessed as reduction in cell viability by MTT assay; type: cell-based; settings: Cricetulus griseus
[1] = Tmax in C57/BL6 mouse blood at 20 mg/kg, po measured upto 24 hrs by LC-MS/MS analysis; type: ADME, organism-based; settings: C57/BL6, mouse, blood, read-out: Tmax
[2] = Apparent half life in C57/BL6 mouse blood at 2 mg/kg, iv administered as bolus dose measured upto 24 hrs by LC-MS/MS analysis; type: ADME, organism-based; settings: C57/BL6, mouse, blood, read-out: t1/2(app) (converted)
[3] = Cmax in C57/BL6 mouse blood at 20 mg/kg, po measured upto 24 hrs by LC-MS/MS analysis; type: ADME, organism-based; set-up: route oral, dose 20 mg/kg, time <=24; settings: C57/BL6, mouse, blood
[4] = Kinetic solubility of compound at 200 uM at pH 7.4 measured after 20 hrs by HPLC-DAD analysis; type: physicochemical; settings: buffer, pH 7.4, 20 h
[5] = Metabolic stability in rat liver microsomes assessed as parent compound remaining after 30 mins; type: ADME, Microsome; settings: 0.5 h
[6] = Volume of distribution during elimination phase in C57/BL6 mouse blood at 2 mg/kg, iv administered as bolus dose measured upto 24 hrs by LC-MS/MS analysis; type: ADME, organism-based; settings: C57/BL6, mouse, blood, read-out: Vd
[7] = Apparent half life in C57/BL6 mouse blood at 20 mg/kg, po measured upto 24 hrs by LC-MS/MS analysis; type: ADME, organism-based; settings: C57/BL6, mouse, blood, read-out: t1/2(app) (converted)
[8] = Cmax in C57/BL6 mouse blood at 2 mg/kg, iv administered as bolus dose measured upto 24 hrs by LC-MS/MS analysis; type: ADME, organism-based; set-up: route intravenous, dose 2 mg/kg, time <=24; settings: C57/BL6, mouse, blood
[9] = Intrinsic clearance in C57/BL6 mouse blood at 2 mg/kg, iv administered as bolus dose measured upto 24 hrs by LC-MS/MS analysis; type: ADME, organism-based; settings: in vivo
[10] = Aqueous solubility of compound at pH 7.4; type: physicochemical; settings: buffer
[11] = Total blood clearance in C57/BL6 mouse blood at 2 mg/kg, iv administered as bolus dose measured upto 24 hrs by LC-MS/MS analysis; type: ADME, organism-based
[12] = Drug metabolism in C57/BL6 mouse blood assessed as glucuronide metabolite formation by HPLC analysis; type: ADME, tissue-based
[13] = AUC (0 to infinity) in C57/BL6 mouse blood at 2 mg/kg, iv administered as bolus dose measured upto 24 hrs by LC-MS/MS analysis; type: ADME, organism-based; set-up: route intravenous, dose 2 mg/kg, time <=24; settings: C57/BL6, mouse, blood
[14] = tested on: Mycobacterium tuberculosis; test: Antimycobacterial activity against mmpL3 gene silenced Mycobacterium tuberculosis H37Rv assessed as inhibition of bacterial growth grown under middlebrook 7H9 medium incubated for 7 days by alamar blue broth microdilution method; type: functional, organism-based; settings: time 7.0 day
[15] = tested on: Mycobacterium tuberculosis; test: Antimycobacterial activity against wild-type Mycobacterium tuberculosis H37Rv assessed as inhibition of bacterial growth grown under middlebrook 7H9 medium incubated for 7 days by alamar blue broth microdilution method; type: functional; settings: 168 h, time 7 day
[16] = AUC (0 to infinity) in C57/BL6 mouse blood at 20 mg/kg, po measured upto 24 hrs by LC-MS/MS analysis; type: ADME, organism-based; set-up: route oral, dose 20 mg/kg, time <=24
[17] = Protein binding in human plasma assessed as unbound fraction at 5 uM incubated for 1 hr at 37 degreeC and measured after 4 hrs by ultracentrifugation based LC-MS/MS analysis; type: ADME, cell-free; settings: 5 h
[18] = Metabolic stability in mouse liver microsomes assessed as parent compound remaining after 30 mins; type: ADME, Microsome; settings: 0.5 h
[19] = tested on: Mycobacterium tuberculosis; type: functional; settings: H37Rv, 168 h, time 7 day
[20] = Oral bioavailability in C57/BL6 mouse blood at 20 mg/kg measured upto 24 hrs by LC-MS/MS analysis; type: ADME, organism-based; settings: C57/BL6, mouse, blood
[21] = Metabolic stability in human liver microsomes assessed as parent compound remaining after 30 mins; type: ADME, Microsome; settings: 0.5 h
[22] = tested on: Mycobacterium tuberculosis; test: Bactericidal activity against Mycobacterium tuberculosis H37Rv assessed as reduction in CFU grown under middlebrook 7H9/OADC-Glycerol-Tween80 medium at 1 to 2 times MIC incubated for 7 days; type: functional; settings: time 7 day

Question: For `CCNc1cc(C)nn1-c1nc(-c2cccnc2)cc(=O)[nH]1`, which IC50 (CHO) is on record?
Answer: > 50 µM

Question: What about the Tmax [1] of the same compound?
Answer: 1 h

Question: What about the half-life [2] of the same compound?
Answer: 4 h

Question: And the Cmax [3]?
Answer: 104 µM

Question: And the Kinetic_solubility [4]?
Answer: 90 µM

Question: And the Stabilty [5]?
Answer: 95%

Question: What about the Vd [6] of the same compound?
Answer: 0.1 L/kg

Question: And the half-life [7]?
Answer: 6.1 h

Question: What about the Cmax [8] of the same compound?
Answer: 33.1 µM

Question: And the CL [9]?
Answer: 34 mL/min/kg

Question: And the solubility [10]?
Answer: 90 µM (≈ 26.7 µg/mL)

Question: What about the clearance [11] of the same compound?
Answer: 0.4 mL/min/kg

Question: And the Drug metabolism [12]?
Answer: Metabolite_Detected

Question: And the AUC(0-inf) [13]?
Answer: 256 µM·h

Question: And the Activity [14]?
Answer: Active

Question: And the MIC [15]?
Answer: 5.8 µM (≈ 1.72 µg/mL)

Question: And the AUC(0-inf) [16]?
Answer: 1090 µM·h

Question: What about the Fu [17] of the same compound?
Answer: 0.009

Question: And the Stabilty [18]?
Answer: 94%

Question: What about the MIC [19] of the same compound?
Answer: 6.25 µM (≈ 1.85 µg/mL)

Question: What about the bioavailability [20] of the same compound?
Answer: 44%

Question: And the Stabilty [21]?
Answer: 80%

Question: What about the Activity [22] of the same compound?
Answer: 2 log10CFU

Question: Which IC50 (CHO) does the source give for `Cc1cc(Nc2ccc(F)cc2)n(-c2nc(C(F)(F)F)cc(=O)[nH]2)n1` here?
Answer: 20 µM

Question: And the Tmax [1]?
Answer: 0.5 h

Question: And the half-life [2]?
Answer: 5.6 h

Question: What about the Cmax [3] of the same compound?
Answer: 2.9 µM

Question: And the Kinetic_solubility [4]?
Answer: 15 µM

Question: And the Stabilty [5]?
Answer: 98%

Question: What about the Vd [6] of the same compound?
Answer: 37.4 L/kg

Question: And the half-life [7]?
Answer: 4.4 h

Question: And the Cmax [8]?
Answer: 2.4 µM

Question: What about the CL [9] of the same compound?
Answer: > 4000 mL/min/kg

Question: And the solubility [10]?
Answer: 15 µM (≈ 5.3 µg/mL)

Question: What about the clearance [11] of the same compound?
Answer: 80.9 mL/min/kg

Question: And the AUC(0-inf) [13]?
Answer: 1.52 µM·h

Question: And the Activity [14]?
Answer: Active

Question: And the MIC [15]?
Answer: 1.2 µM (≈ 0.424 µg/mL)

Question: And the AUC(0-inf) [16]?
Answer: 5.22 µM·h

Question: What about the Fu [17] of the same compound?
Answer: 0.013

Question: What about the Stabilty [18] of the same compound?
Answer: 96%

Question: What about the MIC [19] of the same compound?
Answer: 1.56 µM (≈ 0.551 µg/mL)

Question: What about the bioavailability [20] of the same compound?
Answer: 33%

Question: What about the Stabilty [21] of the same compound?
Answer: 98%

Question: What about the Activity [22] of the same compound?
Answer: 2 log10CFU
